The source of these data is article PMC9259591, “Irigenin, a novel lead from Iris confusa for management of Helicobacter pylori infection with selective COX-2 and HpIMPDH inhibitory potential” (Scientific Reports, 2022).

Experiment [1] has as its system H. pylori ATCC 700392. Nature of the experiment: anti-Helicobacter pylori activity, microwell dilution method with MTT. The format is cell-based. As for the experimental part: The anti-Helicobacter pylori activity of the PF and NPF as well as the isolated compounds was evaluated against H. pylori ATCC 700392 (type strain, obtained from the American Type Culture Collection unit (ATCC), using microwell dilution method and clarithromycin as standard drug[37]. The detailed procedures were described in the supplementary file.
The anti-Helicobacter pylori activity of the PF and NPF as well as the isolated compounds was evaluated against H. pylori ATCC 700392 (a type strain, obtained from the American Type Culture Collection unit (ATCC), using microwell dilution method and clarithromycin as standard drug ^1. The tested samples were prepared in dimethyl sulfoxide and successive ten twofold dilutions (125- 0.24 µg/mL) were carried out in a 96-well plate. Each microplate well included forty μL of Brain Heart Infusion growth medium and 10% fetal bovine serum (FBS), ten μL of inoculum and fifty μL of the tested sample. The plates were incubated for 3 days, in 5% oxygen, 10% carbon dioxide, 85 % nitrogen atmosphere at 37°C. Forty μL of 3- (4, 5-dimethyl-thiazol-2-yl)- 2,5-diphenyl-tetrazolium bromide (MTT) at a final concentration of 0.5 mg/mL freshly prepared in H2O was added to each well and incubated for 30 min. The bacteria were biologically active when change to purple color was observed ^1. While no change in MTT color indicated inhibition. Solvent control (DMSO) and the standard antibiotic (clarithromycin) were used as negative and positive controls, respectively. The H. pylori inhibition % was calculated using the given formula:
% Inhibition = Abs control – Abs sample × 100 /Abs control.

Experiment [2] addresses T1, Human inosine-5′-monophosphate dehydrogenase (hIMPDH2) (Homo sapiens, UniProt P12268).
T1 construct: purchased NovoCIB SAS (Lyon, France)
Nature of the experiment: In vitro hIMPDH2 inhibition assay (NADH absorbance at 340 nm). Format: biochemical. Also on record: key to hIMPDH2 inhibitory activity: % hIMPDH2 inhibition. The settings on record: for hIMPDH2 inhibitory activity: in % (unit assumed). As for the experimental part: Human inosine-5′-monophosphate dehydrogenase (hIMPDH2) was purchased from NovoCIB SAS (Lyon, France). […] The detailed procedures were described in the supplementary file.
(§1) Thus, irigenin was selected to test its HpIMPDH inhibitory activity by monitoring NADH production at concentration range of 10–0.078 µM compared to clarithromycin as standard drug. Also, to examine irigenin selectivity toward the bacterial IMPDH, human hIMPDH2 inhibition potential was assayed.
Human inosine-5′-monophosphate dehydrogenase (hIMPDH2) was purchased from NovoCIB SAS (Lyon, France). […] The assay was carried out in 96-well plates (Tarsons, 980040). The reaction buffer consisted of hundred mM KCl, hundred mM Tris–HCl (pH 8.6), and five mM DTT, 4% v/v DMSO with or without the tested compound and 0.15 mU of purified hIMPDH2 enzyme per well (from 1.5 mg/mL stock concentration). The enzyme stock solution final volume was 2 μL per well, which was insignificant to cause final assay buffer composition change. Addition of (substrate buffer) 0.2 mM of IMP and 0.2 mM of NAD^+ initiated the assay, then it was allowed to proceed for 30 min at 37 °C. The formed NADH was measured by reading the absorbance at 340 nm. […] The concentration of the tested sample leading to 50% hIMPDH2 inhibition (IC50) was estimated.

In experiment [3] the target is T2, H. pylori inosine-5′-monophosphate dehydrogenase (HpIMPDH) (Helicobacter pylori, UniProt P56088).
T2 sequence (P56088 1-481): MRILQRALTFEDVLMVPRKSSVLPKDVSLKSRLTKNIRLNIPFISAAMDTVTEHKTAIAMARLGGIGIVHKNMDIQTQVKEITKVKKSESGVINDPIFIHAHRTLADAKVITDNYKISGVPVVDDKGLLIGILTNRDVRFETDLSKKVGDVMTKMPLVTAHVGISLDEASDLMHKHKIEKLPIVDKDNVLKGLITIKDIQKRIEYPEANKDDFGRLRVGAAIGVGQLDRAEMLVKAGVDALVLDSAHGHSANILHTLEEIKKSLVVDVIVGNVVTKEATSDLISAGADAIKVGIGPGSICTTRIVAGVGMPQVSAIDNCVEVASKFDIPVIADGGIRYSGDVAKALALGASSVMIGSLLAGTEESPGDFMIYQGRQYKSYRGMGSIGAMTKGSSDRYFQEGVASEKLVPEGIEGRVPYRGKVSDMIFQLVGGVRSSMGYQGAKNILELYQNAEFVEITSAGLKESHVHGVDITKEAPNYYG
Nature of the experiment: In vitro HpIMPDH inhibition assay (NADH fluorescence). The format is biochemical. Also on record: HpIMPDH inhibitory activity: unit not given here. As for the experimental part: The assay was carried out according to Galal[40] and was described in detail in the supplementary file.
as §1
The assay was carried out in a final volume of two hundred μL in black 96-well plate (Tarsons Products Pvt. Ltd., Kolkata, India) with a reaction buffer composed of one hundred mM KCl, fifty mM Tris–HCl (pH 8.6), and one mM dithiothreitol (DTT). One hundred nM H. pylori inosine-5′-monophosphate dehydrogenase (HpIMPDH) in the presence/absence of the tested compound were used. The assay mixture was then incubated at 37 °C for 10 min, and the reaction was initiated by the adding 250 μM of inosine 5ʹ‐monophosphate (IMP) and 300 μM of nicotinamide adenine dinucleotide (NAD^+) substrate buffer. The assay was allowed to proceed for 45 min at 37 °C.
The formed NADH was measured by recording the fluorescence (excitation 340 nm, emission 440 nm) using PerkinElmer EnVision Multilabel Reader (Waltham, MA) at an interval of one min. DMSO and clarithromycin were used as vehicle control and positive control, respectively. The concentration of the tested sample leading to 50% HpIMPDH inhibition (IC50) was estimated.

Experiment [4] concerns the target T3, human recombinant COX-2 (Homo sapiens, UniProt P35354).
T3 construct: purchased
T3 sequence (P35354 18-604): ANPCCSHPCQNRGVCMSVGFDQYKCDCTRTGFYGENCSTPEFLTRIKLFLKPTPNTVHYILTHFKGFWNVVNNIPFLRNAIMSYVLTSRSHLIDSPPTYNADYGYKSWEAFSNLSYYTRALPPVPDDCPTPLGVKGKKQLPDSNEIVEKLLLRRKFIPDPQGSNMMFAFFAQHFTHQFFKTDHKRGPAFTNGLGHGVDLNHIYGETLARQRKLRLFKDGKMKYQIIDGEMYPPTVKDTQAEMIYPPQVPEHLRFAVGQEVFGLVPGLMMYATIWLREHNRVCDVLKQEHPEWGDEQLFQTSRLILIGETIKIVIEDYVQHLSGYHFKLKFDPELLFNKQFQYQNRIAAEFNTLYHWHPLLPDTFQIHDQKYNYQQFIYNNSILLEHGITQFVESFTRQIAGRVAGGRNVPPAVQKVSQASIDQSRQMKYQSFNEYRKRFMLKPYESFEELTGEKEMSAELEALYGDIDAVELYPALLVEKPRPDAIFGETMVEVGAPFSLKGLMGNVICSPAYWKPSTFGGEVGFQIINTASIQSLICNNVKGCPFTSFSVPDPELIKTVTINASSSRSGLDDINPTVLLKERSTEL
Nature of the experiment: COX-2 inhibitory activity, colourimetric COX inhibitor screening assay kit. The format is biochemical. The settings on record: for SI (COX-1/COX-2): selectivity index calculated as IC50 (COX-1)/(COX-2). The protocol: (§2) The inhibitory COX activity was assayed colourimetrically by examining the inhibition of the ovine COX-1 and human recombinant COX-2 enzymes as described by George et al.[38], using a COX inhibitor screening assay kit. The detailed procedures were described in the supplementary file.
(§3) The inhibitory COX activity was assayed colourimetrically by examining the inhibition of the ovine COX-1 and human recombinant COX-2 enzymes as described by George et al. ^2, using a COX inhibitory screening assay kit. This assay determines the COX peroxidase activity by monitoring the appearance of N,N,N',N'-tetramethyl-p-phenylenediamine (TMPD). Assay buffer (150 μL 0.1 M Tris–HCl pH 8.0), 10 μL heme and 10μL enzyme (COX-1 or COX-2) were added in each well. Ten μL of each tested sample concentration was added to each well and incubated for 15 minutes at 37°C. After incubation, 20 μL of TMPD was added to each well. For initiating the reaction, 10 μL 10 mM arachidonic acid was added and the plates were further incubated for another 2 minutes at 37°C. For terminating the reaction, 50 μL 1 N HCl and saturated stannous chloride were added.
(§4) Reaction mixture containing assay buffer and heme acted as the blank and a mixture with either COX-1 or COX-2 assay buffer and heme acted as the 100% initial activity (IA). […] The absorbances of oxidized TMPD (blue colour) were read in ELISA plate reader at 590 nm. The % inhibition was calculated using the following formula:
(§5) COX % Inhibition= [(100%IA−Inhibitor)/ 100% IA x 100]. Where, IA: 100% initial activity.
(§6) The concentration at which the tested sample produces 50% inhibition of COX-1 and/or COX-2 (IC50) was determined. The selectivity index (SI) was calculated also as IC50 (COX-1)/ (COX-2).

For experiment [5], the target named is T4, ovine COX-1 (Ovis aries, UniProt P05979).
T4 construct: purchased
As to the kind of experiment: COX-1 inhibitory activity, colourimetric COX inhibitor screening assay kit. Format: biochemical. As to conditions: ovine COX-1; ND = not detected. The protocol:
as §2, §3, §4, §5, §6

Setting [6] is: Helicobacter pylori, ATCC700392; read-out: MIC (H. pylori).
[7] abbreviates: sample conc. 0.078 (range 10–0.078 µM).
Where [8] appears, read: sample conc. 0.156 (range 10–0.078 µM).
The mark [9] stands for this setting: sample conc. 0.313 (range 10–0.078 µM).
Where [10] appears, read: sample conc. 0.625 (range 10–0.078 µM).
[11] abbreviates: sample conc. 1.25 (range 10–0.078 µM).
Setting [12] is: sample conc. 2.5 (range 10–0.078 µM).
[13] abbreviates: sample conc. 5 (range 10–0.078 µM).
The mark [14] stands for this setting: sample conc. 10 (range 10–0.078 µM).
Where [15] appears, read: concentration required for 100% inhibition; H. pylori ATCC 700392; ND = not detected.

≈ marks a conversion by molar mass, not a printed value. Where “and” joins values, the source holds several entries; their conditions need not be identical. Identical values can stand only once. Like-named read-outs stand apart in the source and are kept apart here. Some results are limits rather than exact numbers.

T4 sequence (P05979 25-600): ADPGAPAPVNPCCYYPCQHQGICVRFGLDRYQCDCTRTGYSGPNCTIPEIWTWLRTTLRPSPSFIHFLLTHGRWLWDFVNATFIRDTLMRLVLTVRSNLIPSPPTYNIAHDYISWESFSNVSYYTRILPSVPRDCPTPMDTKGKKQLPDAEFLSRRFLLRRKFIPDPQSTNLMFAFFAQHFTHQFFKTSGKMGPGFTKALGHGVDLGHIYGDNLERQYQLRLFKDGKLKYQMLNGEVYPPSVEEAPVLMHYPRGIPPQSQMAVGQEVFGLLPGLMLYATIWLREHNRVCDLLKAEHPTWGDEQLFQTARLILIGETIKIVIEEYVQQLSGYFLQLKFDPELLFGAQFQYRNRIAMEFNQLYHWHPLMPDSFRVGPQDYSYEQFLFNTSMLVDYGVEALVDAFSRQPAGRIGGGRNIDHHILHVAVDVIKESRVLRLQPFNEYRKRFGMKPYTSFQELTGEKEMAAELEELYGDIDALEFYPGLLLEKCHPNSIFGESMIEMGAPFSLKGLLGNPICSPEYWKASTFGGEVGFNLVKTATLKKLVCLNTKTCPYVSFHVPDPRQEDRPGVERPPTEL

In general, MIC refers to the smallest concentration in the dilution series that meets the test's criterion for growth inhibition. A word on the IC50: it is the concentration that inhibits the measured activity by half. For the molecule `CC[C@H]1OC(=O)[C@H](C)[C@@H](O[C@H]2C[C@@](C)(OC)[C@@H](O)[C@H](C)O2)[C@H](C)[C@@H](O[C@@H]2O[C@H](C)C[C@H](N(C)C)[C@H]2O)[C@](C)(OC)C[C@@H](C)C(=O)[C@H](C)[C@@H](O)[C@]1(C)O` [Clarithromycin, clarithromycin, reference compound], in experiment [1] (setting [6]), the MIC is 1.95 µg/mL and 2.61 µM. In addition, the IC50 was 3100 ± 2100 nM in experiment [2] and 510 ± 580 nM in experiment [3]. In addition, the hIMPDH2 inhibitory activity was 0.00 in experiment [2] (setting [7]); 0.00 in experiment [2] (setting [8]); 9.74 ± 0.67 in experiment [2] (setting [9]); 19.35 ± 1.50 in experiment [2] (setting [10]); 27.32 ± 1.70 in experiment [2] (setting [11]); 46.32 ± 2.20 in experiment [2] (setting [12]). Also, the hIMPDH2 inhibitory activity came out at 60.24 ± 1.50 in experiment [2] (setting [13]) and 76.32 ± 0.50 in experiment [2] (setting [14]). Also, the HpIMPDH inhibitory activity is 9.14 ± 1.70 in experiment [3] (setting [7]); 21.82 ± 2.10 in experiment [3] (setting [8]); 38.25 ± 1.50 in experiment [3] (setting [9]); 56.06 ± 0.58 in experiment [3] (setting [10]); 69.31 ± 2.10 in experiment [3] (setting [11]); 81.22 ± 1.60 in experiment [3] (setting [12]). Further, the HpIMPDH inhibitory activity in experiment [3] (setting [13]) and in experiment [3] (setting [14]) was 100 ± 0.00 throughout.

Consider `O=c1cc(-c2ccc(O)c(O)c2)oc2c([C@@H]3O[C@H](CO)[C@@H](O)[C@H](O)[C@H]3O)c(O)cc(O)c12` [Orientin (P2), luteolin-8-C-β-glucopyranoside], for which the MIC in experiment [1] (Helicobacter pylori, ATCC700392, read-out: MIC (H. pylori)) is 15.5 µg/mL and 34.6 µM; in experiment [1] (concentration required for 100% inhibition; H. pylori ATCC 700392; read-out: MIC (H. pylori)), 34.64 µM (≈ 15.5 µg/mL). Moreover, the “MIC (H. pylori)” value in experiment [1] (setting [15]) came to 15.53 µg/mL (≈ 34.6 µM). For the same molecule, in experiment [4], the “SI (COX-1/COX-2)” value was 1.58.

Take `CC[C@H](/C=C/[C@@H](C)[C@H]1CC[C@H]2[C@@H]3CC=C4C[C@@H](O)CC[C@]4(C)[C@H]3CC[C@]12C)C(C)C` [Stigmasterol (N2), stigmasterol]: the “MIC (H. pylori)” value in experiment [1] (setting [15]) is recorded as “no H. pylori inhibitory potential”. In addition, in experiment [4], the “SI (COX-1/COX-2)” value was 1.33.

For the molecule `COc1c(O[C@@H]2O[C@H](CO)[C@@H](O)[C@H](O)[C@H]2O)cc2occ(-c3ccc(O)cc3)c(=O)c2c1O` [Tectoridin (P1), tectorigenin-7-O-β-D-glucoside], in experiment [1] (setting [6]), the MIC is > 125 µg/mL and > 270 µM. For the same molecule, the “MIC (H. pylori)” value is more than 125 µg/mL in experiment [1] (setting [15]) and “no activity” in experiment [1] (concentration required for 100% inhibition; H. pylori ATCC 700392; ND = not detected; listed as tectoridine (P1)). The “IC50 (COX-1)” value in experiment [5] is on record as “no inhibition”. Also, the “IC50 (COX-2)” value in experiment [4] (human recombinant COX-2, ND = not detected) was “no inhibition”.
